According to PMC3530479, “Bestrophin-Encoded Ca^2+-Activated Cl^− Channels Underlie a Current with Properties Similar to the Native Current in the Moth Spodoptera littoralis Olfactory Receptor Neurons” (PLoS ONE, 2012):

Target: T1, SlitBest1b (Spodoptera littoralis, UniProt I6YK90)
T1 construct: full open reading frame without stop codon in pCINeo/IRES-GFP, expressed transiently in CHO-K1 cells
T1 sequence (I6YK90 1-707): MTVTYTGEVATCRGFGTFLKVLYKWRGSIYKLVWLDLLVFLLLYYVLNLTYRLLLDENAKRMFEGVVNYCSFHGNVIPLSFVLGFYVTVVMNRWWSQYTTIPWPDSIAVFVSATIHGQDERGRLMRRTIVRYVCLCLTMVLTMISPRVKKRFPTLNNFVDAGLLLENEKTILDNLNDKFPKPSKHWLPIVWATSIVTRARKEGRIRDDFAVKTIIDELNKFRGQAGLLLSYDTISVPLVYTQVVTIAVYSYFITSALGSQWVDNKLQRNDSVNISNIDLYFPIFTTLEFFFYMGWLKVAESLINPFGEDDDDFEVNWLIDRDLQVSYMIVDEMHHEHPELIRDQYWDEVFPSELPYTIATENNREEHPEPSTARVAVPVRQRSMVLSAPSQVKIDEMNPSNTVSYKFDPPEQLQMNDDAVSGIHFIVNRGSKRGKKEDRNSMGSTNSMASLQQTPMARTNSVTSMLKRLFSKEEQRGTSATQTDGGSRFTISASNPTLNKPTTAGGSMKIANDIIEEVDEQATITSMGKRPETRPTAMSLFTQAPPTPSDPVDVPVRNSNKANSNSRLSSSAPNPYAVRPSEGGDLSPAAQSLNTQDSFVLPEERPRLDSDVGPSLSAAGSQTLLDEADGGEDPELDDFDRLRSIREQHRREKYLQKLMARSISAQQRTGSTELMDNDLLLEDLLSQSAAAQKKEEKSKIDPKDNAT
Assay: whole-cell patch clamp, steady-state Ca2+-activated Cl- current in transfected CHO-K1 cells
Type: cell-based
Description: whole-cell patch clamp, steady-state Ca2+-activated Cl- current in transfected CHO-K1 cells on SlitBest1b

Compound: O=C(O)c1ccccc1Nc1cccc(C(F)(F)F)c1 [flufenamic acid]
- inhibition at 100 µM: 78.7 ± 8.2%

Compound: O=C(O)c1cc([N+](=O)[O-])ccc1NCCCc1ccccc1 [NPPB, 5-nitro-2-(3-phenylpropylamino) benzoic acid]
- inhibition at 100 µM: 101 ± 7.6%

Compound: O=C(O)c1cccnc1Nc1cccc(C(F)(F)F)c1 [niflumic acid]
- inhibition at 300 µM: 65.1 ± 8.9%
